Test results from US20230165876A1, “METHYLTHIONINIUM COMPOUNDS FOR USE IN THE TREATMENT OF COVID-19” (WisTa Laboratories Ltd., priority 2020, published 2023).
Where a SMILES comes first, the peptide text is derived from it. The star is where a group is joined. Cbz = O=C(OCc1ccccc1)*; CHN2 = [N-]=[N+]=C*

Key:
SARS-CoV-2 [1] = details: Vero E6 cells; screen concentration 5 µM; cited from earlier work
Complex IV = details: tau transgenic mouse model; cited from earlier work
red cells = details: administered intravenously; LMTM relative to MTC; cited from earlier work
[2] = Phase 3 double-blind controlled studies of LMTM in AD and bvFTD, safety; format: in vivo, human
Protocol: Three Phase 3, double-blind, controlled studies of LMTM have been completed (one each in subjects with mild and mild to moderate AD and one in subjects with bvFTD). Results of the AD studies have been published (Gauthier et al., 2016; Wilcock et al., 2018; Shiells et al., 2020). These studies provide an overview of the more common adverse events that might be expected at a dose of LMTM 16 mg/day. In these three studies, 1897 subjects received at least one dose of LMTM. Of these, 860 subjects received LMTM 8 mg/day and 1037 subjects received at least one dose of LMTM in the higher doses of 150 to 250 mg/day. The mean ages of study participants were 71 years (ranging up to 89 years) for subjects with AD and 63 years (ranging up to 79 years) for subjects with bvFTD.
The overall person-years of exposure to LMTM 8 mg/day was 995.2 person-years and to the higher LMTM doses of 150 to 250 mg/day was 988.6 person-years. Six percent (6%) of the subjects discontinued LMTM 8 mg/day due to adverse events; the proportion of subjects discontinuing due to adverse events in the higher dose groups was higher (14%).
The most common Treatment-Emergent Adverse Events (TEAEs) considered at least possibly associated with LMTM given in a dose of 8 mg/day were gastrointestinal (mostly diarrhoea and nausea), genitourinary (mostly pollakiuria and urinary incontinence), haematologic (anaemia, decreased folate, and folate deficiency), and nervous system related (mostly fatigue, dizziness, headache, agitation, and insomnia).
In summary, therefore, the safety of LMTM has been studied in over 2400 patients in Phase 1 and Phase 3 trials at repeat doses up to 450 mg/day. Even at the highest doses examined, the safety profile of LMTM remains benign and consistent with further clinical development.

[3] = LMTM relative to MTC; cited from earlier work
[4] = Oral doses with anti-viral activity and LMTM equivalent calculated from AD activity data; design: species or system human; details: calculated using the activity data in AD as basis for comparison
[5] = LMTM in AD; cited from earlier work
SARS-CoV = details: cited from earlier work
SARS-CoV-2 [6] = details: cited from earlier work
SARS-CoV-2 [7] = details: advanced COVID-19 cases, treated vs not treated; cited from earlier work
SARS-CoV-2 [8] = details: 20 COVID-19 patients; cited from earlier work

Structure (SMILES): Cc1cccc(/C=N/Nc2cc(N3CCOCC3)nc(OCCc3ccccn3)n2)c1 [Apilimod]
- inhibition of viral replication (SARS-CoV-2 [1]): inhibited viral replication

Structure (SMILES): CN(C)c1ccc2c(c1)Sc1cc(N(C)C)ccc1N2.CS(=O)(=O)O.CS(=O)(=O)O [LMTM, N,N,N′,N′-tetramethyl-10H-phenothiazine-3,7-diaminium bis(hydromethanesulfonate)]
- brain Complex IV activity (Complex IV): enhance brain Complex IV activity
- better uptake into red cells (red cells): 20 fold
- change in RBC count, haemoglobin and haematocrit ([2]; LMTM 8 mg/day): minimal change
- subjects discontinued due to adverse events ([2]; LMTM 8 mg/day): 6%
- vital sign measurements, ECGs, or the C-SSRS ([2]; Phase 3 studies): No clinically meaningful trends
- RBC count, haemoglobin and haematocrit ([2]; greater decreases in the higher dose groups (150 to 250 mg/day) compared to 8 mg/day): dose-dependent decreases
- subjects discontinuing due to adverse events ([2]; higher LMTM doses of 150 to 250 mg/day): 14%
- incidence of anaemia-related TEAEs, gastrointestinal events and genitourinary events ([2]; higher LMTM doses, 150 to 250 mg/day): dose-related increase
- safety profile ([2]; over 2400 patients in Phase 1 and Phase 3 trials, repeat doses up to 450 mg/day): benign
- better brain:plasma ratio [3]: more than 60 fold
- equivalent doses of LMTM [4]: 12 - 27 mg/MT per day
- minimum effective dose required for anti-dementia effects [5]: 8 mg/day
- optimally effective dose [5]: 16 mg/day
- cardiotoxicity (Cardiotoxicity): does not have the cardiotoxicity

Structure (SMILES): CC(C)(O)c1ccc2c(c1)/C(=C/CCN1CC[C@](O)(c3ccc(Cl)cc3)C(C)(C)C1)c1cccnc1CO2 [MLN-3897]
- inhibition of viral replication (SARS-CoV-2 [1]): inhibited viral replication

Structure (SMILES): C[C@@H]1CS/C(=N\NC(=O)C(=O)[C@@H](NC(=O)C2CCCCCC2)C2CCOCC2)N1C [ONO 5334]
- inhibition of viral replication (SARS-CoV-2 [1]): inhibited viral replication

Structure (SMILES): CC[C@H](NC(=O)[C@H](CS(=O)(=O)CC1CC1)N[C@@H](c1ccc(F)cc1)C(F)(F)F)C(=O)C(=O)NC1CC1 [VBY-825]
- inhibition of viral replication (SARS-CoV-2 [1]): inhibited viral replication

Structure (SMILES): CC(C)CC(NC(=O)OCc1ccccc1)C(=O)NC(C(=O)NCC(=O)C=[N+]=[N-])C(C)C (stereo not drawn) [Z LVG CHN2] (Cbz-Leu-Val-Gly-CHN2; configuration not given here)
- inhibition of viral replication (SARS-CoV-2 [1]): inhibited viral replication

Structure (SMILES): CCN(CC)CCCC(C)Nc1ccnc2cc(Cl)ccc12 (centres unmarked) [chloroquine]
- effectiveness against SARS-CoV in vitro (SARS-CoV): effectiveness
- effectiveness against SARS-CoV-2 in vitro (SARS-CoV-2 [6]): effectiveness
- benefit in advanced cases (mortality rates) (SARS-CoV-2 [7]): no benefit

Structure (SMILES): CCN(CCO)CCCC(C)Nc1ccnc2cc(Cl)ccc12 (centres unmarked) [hydroxychloroquine]
- viral load in nasal swabs (SARS-CoV-2 [8]): significantly reduced viral load
